What was measured:
Experiment in all cases: relative viability (nuclei count vs DMSO), 5 days (fraction); higher = more cells survive
[1] = compound: C1COCCN1C2=NC(=NC3=C2OC4=C3C=CC=N4)C5=CC(=CC=C5)NC(=O)C6=CN=C(C=C6)N + C[C@]1(O)C[C@@H](c2nc(-c3ccc4ccc(-c5ccccc5)nc4c3)c3c(N)nccn32)C1 [Linsitinib] (partner 1 µM)
In short: (§1)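 Relative viability was taken as the ratio of nuclei in treated wells to nuclei in vehicle wells. Lung cancer cell lines in 1536-well plates received compounds by pin tool one day after seeding, either one drug alone or a fixed anchor-drug dose plus five library-drug doses (not always all listed) in √10 steps. Nuclei were counted on 4× images after 5 days of treatment, and values are medians of duplicate plates.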

SGI-1776 + Navitoclax = compound: CN1CCC(CNc2ccc3ncc(-c4cccc(OC(F)(F)F)c4)n3n2)CC1 [SGI-1776] + CC1(C)CCC(c2ccc(Cl)cc2)=C(CN2CCN(c3ccc(C(=O)NS(=O)(=O)c4ccc(N[C@H](CCN5CCOCC5)CSc5ccccc5)c(S(=O)(=O)C(F)(F)F)c4)cc3)CC2)C1 [Navitoclax] (partner 0.5 µM)
In short: as §1

Entinostat + Foretinib = compound: Nc1ccccc1NC(=O)c1ccc(CNC(=O)OCc2cccnc2)cc1 [Entinostat] + COc1cc2c(Oc3ccc(NC(=O)C4(C(=O)Nc5ccc(F)cc5)CC4)cc3F)ccnc2cc1OCCCN1CCOCC1 [Foretinib] (partner 0.25 µM)
In short: as §1

Entinostat + Alpelisib = compound: Nc1ccccc1NC(=O)c1ccc(CNC(=O)OCc2cccnc2)cc1 [Entinostat] + Cc1nc(NC(=O)N2CCC[C@H]2C(N)=O)sc1-c1ccnc(C(C)(C)C(F)(F)F)c1 [Alpelisib] (partner 2 µM)
In short: as §1

Row | Cell Line | relative viability ([1]; first compound 0.02 µM) | relative viability ([1]; first compound 0.06325 µM) | relative viability ([1]; first compound 0.2 µM) | relative viability ([1]; first compound 0.6325 µM) | relative viability ([1]; first compound 2 µM) | relative viability (SGI-1776 + Navitoclax; first compound 0.08 µM) | relative viability (SGI-1776 + Navitoclax; first compound 0.8 µM) | relative viability (SGI-1776 + Navitoclax; first compound 2.53 µM) | relative viability (SGI-1776 + Navitoclax; first compound 8 µM) | relative viability (Entinostat + Foretinib; first compound 0.02 µM) | relative viability (Entinostat + Foretinib; first compound 0.06325 µM) | relative viability (Entinostat + Foretinib; first compound 0.2 µM) | relative viability (Entinostat + Foretinib; first compound 0.6325 µM) | relative viability (Entinostat + Foretinib; first compound 2 µM) | relative viability (Entinostat + Alpelisib; first compound 0.02 µM) | relative viability (Entinostat + Alpelisib; first compound 0.06325 µM) | relative viability (Entinostat + Alpelisib; first compound 0.2 µM) | relative viability (Entinostat + Alpelisib; first compound 0.6325 µM) | relative viability (Entinostat + Alpelisib; first compound 2 µM)
1 | NCI-H1915 | 1.08 | 1.14 | 1.13 | 1.11 | 1.08 | 0.795 | 0.802 | 0.793 | 0.781 | 1.06 | 1.06 | 1.07 | 1 | 0.592 | 1.07 | 1.08 | 1.05 | 0.816 | 0.402
2 | NCI-H647 | 1.11 | 1.27 | 1.19 | 0.901 | 0.588 | 1.1 | 0.993 | 1.18 | 0.715 | 1.23 | 1.12 | 0.826 | 0.465 | 0.23 | 1.09 | 1.28 | 1.06 | 0.419 | 0.11
3 | NCI-H2126 | 0.73 | 0.79 | 0.68 | 0.581 | 0.601 | 0.809 | 0.877 | 0.846 | 0.743 | 1.12 | 1.06 | 1.05 | 0.572 | 0.415 | 0.738 | 0.708 | 0.614 | 0.46 | 0.317
4 | NCI-H727 | 0.284 | 0.31 | 0.24 | 0.257 | 0.256 | 0.426 | 0.446 | 0.346 | 0.247 | 0.753 | 0.782 | 0.794 | 0.679 | 0.521 | 0.708 | 0.669 | 0.545 | 0.264 | 0.297
5 | EMC-BAC-2 | 0.815 | 0.83 | 0.749 | 0.762 | 0.491 | 1.23 | 1.22 | 1.16 | 1.1 | 1.03 | 0.938 | 0.814 | 0.608 | 0.513 | 0.797 | 0.795 | 0.776 | 0.636 | 0.394
6 | NCI-H1437 | 1.05 | 1.08 | 1.07 | 1.01 | 0.314 | 1.13 | 1.07 | 1.11 | 1.04 | 0.992 | 0.804 | 0.456 | 0.352 | 0.261 | 0.822 | 0.594 | 0.388 | 0.167 | 0.138
7 | NCI-H2347 | 0.917 | 0.966 | 0.979 | 0.98 | 0.877 | 0.886 | 0.787 | 0.808 | 0.673 | 0.837 | 0.812 | 0.454 | 0.254 | 0.37 | 1.09 | 0.99 | 0.865 | 0.391 | 0.343
8 | NCI-H1666 | 0.867 | 0.908 | 0.804 | 0.817 | 0.681 | 0.907 | 0.772 | 0.836 | 0.705 | 1.06 | 1.02 | 0.964 | 0.537 | 0.366 | 1.21 | 0.856 | 0.872 | 0.318 | 0.322
9 | NCI-H1993 | 0.768 | 0.627 | 0.689 | 0.74 | 0.667 | 0.95 | 0.945 | 0.832 | 0.56 | 0.891 | 0.686 | 0.664 | 0.618 | 0.637 | 0.674 | 0.704 | 0.733 | 0.695 | 0.728
10 | COR-L23 | 1.16 | 0.978 | 0.933 | 1.04 | 0.543 | 1.13 | 1.03 | 1.11 | 0.731 | 0.919 | 0.857 | 0.943 | 0.495 | 0.308 | 0.658 | 0.632 | 0.547 | 0.321 | 0.175
11 | LU99A | 0.517 | 0.583 | 0.435 | 0.353 | 0.236 | 0.903 | 0.782 | 0.898 | 0.81 | 0.773 | 0.739 | 0.76 | 0.579 | 0.442 | 0.517 | 0.5 | 0.546 | 0.418 | 0.324
12 | NCI-H460 | 0.839 | 0.959 | 0.834 | 0.583 | 0.225 | 1.12 | 1.13 | 1.07 | 1.19 | 0.967 | 0.954 | 0.699 | 0.193 | 0.0625 | 0.491 | 0.463 | 0.285 | 0.0307 | 0.0143
13 | NCI-H1975 | 0.882 | 0.983 | 0.897 | 0.905 | 0.476 | 1.21 | 1.06 | 0.883 | 0.817 | 0.904 | 0.78 | 0.64 | 0.326 | 0.224 | 0.454 | 0.38 | 0.38 | 0.247 | 0.204
14 | NCI-H1355 | 0.871 | 0.933 | 0.815 | 0.789 | 0.68 | 0.952 | 0.967 | 0.883 | 0.798 | 0.903 | 0.91 | 0.751 | 0.695 | 0.571 | 0.83 | 0.806 | 0.641 | 0.514 | 0.426
15 | NCI-H1755 | 1.02 | 1.01 | 0.992 | 0.94 | 0.509 | 1.02 | 0.976 | 0.934 | 0.856 | 0.901 | 0.864 | 0.805 | 0.713 | 0.421 | 0.87 | 0.921 | 0.838 | 0.512 | 0.353
16 | NCI-H2009 | 1.29 | 1.2 | 1.17 | 1.17 | 0.871 | 1.15 | 1.18 | 1.19 | 1.08 | 1.15 | 1.19 | 1.19 | 0.942 | 0.894 | 1.21 | 1.13 | 1.15 | 0.884 | 0.721
17 | LK-2 | 0.464 | 0.797 | 0.625 | 0.624 | 0.395 | 0.98 | 0.828 | 0.772 | 0.549 | 1.02 | 1.31 | 0.905 | 0.683 | 0.543 | 1.1 | 1.03 | 1.04 | 0.692 | 0.421
18 | HCC-78 | 0.425 | 0.329 | 0.569 | 0.492 | 0.415 | 0.816 | 0.766 | 0.812 | 0.66 | 0.559 | 0.479 | 0.39 | 0.297 | 0.264 | 0.342 | 0.32 | 0.238 | 0.133 | 0.104
19 | NCI-H3122 | 0.93 | 1.11 | 0.976 | 0.988 | 0.821 | 1.01 | 1.03 | 1.03 | 1.04 | 0.992 | 0.995 | 0.999 | 0.973 | 0.776 | 0.777 | 0.881 | 0.786 | 0.733 | 0.605
20 | HOP-62 | 0.675 | 0.967 | 0.825 | 0.934 | 0.773 | 1.09 | 1.11 | 1.09 | 0.967 | 1.11 | 0.983 | 0.995 | 0.609 | 0.356 | 1.02 | 0.9 | 0.929 | 0.599 | 0.348
21 | BEN | 0.953 | 0.94 | 1.05 | 0.941 | 0.569 | 0.0663 | 0.049 | 0.0583 | 0.0494 | 0.782 | 0.756 | 0.465 | 0.498 | 0.283 | 1.21 | 0.944 | 1.02 | 0.6 | 0.275
22 | SK-MES-1 | 0.99 | 1.24 | 1.13 | 1.04 | 0.791 | 1.35 | 1.23 | 1.27 | 1.15 | 1.08 | 1.09 | 1.15 | 0.96 | 0.712 | 0.932 | 1.02 | 1.05 | 0.81 | 0.682
23 | NCI-H2085 | 0.839 | 1.02 | 0.885 | 0.82 | 0.456 | 1.18 | 1.07 | 1.2 | 0.945 | 1.01 | 0.969 | 0.984 | 0.54 | 0.401 | 0.947 | 0.946 | 0.766 | 0.634 | 0.502
24 | NCI-H1703 | 0.412 | 0.567 | 0.747 | 0.757 | 0.381 | 1.22 | 0.914 | 0.457 | 0.178 | 0.322 | 0.346 | 0.49 | 0.812 | 0.688 | 0.41 | 0.413 | 0.522 | 0.504 | 0.428
25 | EBC-1 | 0.826 | 1.07 | 0.875 | 0.847 | 0.58 | 0.458 | 0.292 | 0.289 | 0.144 | 0.0998 | 0.0994 | 0.101 | 0.0814 | 0.0684 | 0.832 | 0.984 | 0.542 | 0.179 | 0.116
26 | 201T | 1 | 1.01 | 1.05 | 0.981 | 0.97 | 1.19 | 1.24 | 1.23 | 1.17 | 1.12 | 1.22 | 1.2 | 0.958 | 0.453 | 1.01 | 1.08 | 1.02 | 0.859 | 0.525
27 | NCI-H2023 | 0.639 | 0.755 | 0.602 | 0.543 | 0.333 | 1.04 | 1.04 | 0.998 | 0.979 | 0.765 | 0.749 | 0.408 | 0.162 | 0.11 | 0.475 | 0.5 | 0.319 | 0.165 | 0.128
28 | NCI-H1395 | 0.901 | 1 | 1.08 | 1.19 | 0.875 | 1.08 | 1.41 | 1.13 | 0.836 | 1 | 1.03 | 0.994 | 0.846 | 0.68 | 1.09 | 1.22 | 1.02 | 0.81 | 0.522

Source: the supplement of paper PMC10307832
